According to ChEMBL document CHEMBL1177794, “Broad spectrum alkynyl inhibitors of T315I Bcr-Abl” (Bioorg Med Chem Lett, 2010):

How the values were obtained:
[1] = biological target: Peripheral plasma membrane protein CASK (Homo sapiens) (UniProt O14936); assay: Inhibition of CASK at 10 uM; conditions: values are per cent of control
[2] = biological target: Mitogen-activated protein kinase 10 (Homo sapiens) (UniProt P53779); assay: Inhibition of JNK3 at 10 uM; values are per cent of control
[3] = tested on: Tyrosine-protein kinase ABL1 (Homo sapiens), P00519 [T315I]; assay: Inhibition of phosphorylated ABL1 T315I mutant at 10 uM; conditions: values are per cent of control
[4] = biological target: Phosphatidylinositol 4,5-bisphosphate 3-kinase catalytic subunit alpha isoform (Homo sapiens) (UniProt P42336); assay: Inhibition of PIK3CA at 10 uM; values are per cent of control
[5] = biological target: Death-associated protein kinase 1 (Homo sapiens) (UniProt P53355); assay: Inhibition of DAPK1 at 10 uM; conditions: values are per cent of control
[6] = tested on: Epidermal growth factor receptor (Homo sapiens), P00533 [T790M]; assay: Inhibition of EGFR T790M mutant at 10 uM; values are per cent of control
[7] = biological target: MAP kinase-interacting serine/threonine-protein kinase 2 (Homo sapiens) (UniProt Q9HBH9); assay: Inhibition of MKNK2 at 10 uM
[8] = biological target: NT-3 growth factor receptor (Homo sapiens) (UniProt Q16288); assay: Inhibition of TRKC at 10 uM; conditions: values are per cent of control
[9] = biological target: Phosphatidylinositol 4-phosphate 3-kinase C2 domain-containing subunit beta (Homo sapiens) (UniProt O00750); assay: Inhibition of PIK3C2B at 10 uM
[10] = tested on: Mast/stem cell growth factor receptor Kit (Homo sapiens), P10721 [D816V]; assay: Inhibition of KIT D816V mutant at 10 uM; conditions: values are per cent of control
[11] = biological target: Ribosomal protein S6 kinase alpha-1 (Homo sapiens) (UniProt Q15418); assay: Inhibition of RSK1 C-terminal domain2 at 10 uM
[12] = biological target: Protein kinase C eta type (Homo sapiens) (UniProt P24723); assay: Inhibition of PRKCH at 10 uM
[13] = biological target: Serine/threonine-protein kinase pim-3 (Homo sapiens) (UniProt Q86V86); assay: Inhibition of PIM3 at 10 uM
[14] = biological target: Mitogen-activated protein kinase 12 (Homo sapiens) (UniProt P53778); assay: Inhibition of p38-gamma at 10 uM; values are per cent of control
[15] = tested on: Serine/threonine-protein kinase B-raf (Homo sapiens), P15056 [V600E]; assay: Inhibition of BRAF V600E mutant at 10 uM; conditions: values are per cent of control
[16] = biological target: Rho-associated protein kinase 2 (Homo sapiens) (UniProt O75116); assay: Inhibition of ROCK2 at 10 uM
[17] = biological target: Non-receptor tyrosine-protein kinase TYK2 (Homo sapiens) (UniProt P29597); assay: Inhibition of TYK2 JH1 catalytic domain at 10 uM; conditions: values are per cent of control
[18] = tested on: Mast/stem cell growth factor receptor Kit (Homo sapiens), P10721 [A829P]; assay: Inhibition of KIT A829P mutant at 10 uM; conditions: values are per cent of control
[19] = biological target: Serine/threonine-protein kinase PAK 4 (Homo sapiens) (UniProt O96013); assay: Inhibition of PAK4 at 10 uM
[20] = tested on: Fibroblast growth factor receptor 3 (Homo sapiens), P22607 [G697C]; assay: Inhibition of FGFR3 G697C mutant at 10 uM; conditions: values are per cent of control
[21] = biological target: Tyrosine-protein kinase Fes/Fps (Homo sapiens) (UniProt P07332); assay: Inhibition of FES at 10 uM; conditions: values are per cent of control
[22] = biological target: Serine/threonine-protein kinase N1 (Homo sapiens) (UniProt Q16512); assay: Inhibition of PKN1 at 10 uM
[23] = biological target: Serine/threonine-protein kinase B-raf (Homo sapiens) (UniProt P15056); assay: Inhibition of BRAF at 10 uM; conditions: values are per cent of control
[24] = biological target: Serine/threonine-protein kinase 10 (Homo sapiens) (UniProt O94804); assay: Inhibition of LOK at 10 uM; values are per cent of control
[25] = biological target: Serine/threonine-protein kinase ICK (Homo sapiens) (UniProt Q9UPZ9); assay: Inhibition of ICK at 10 uM; conditions: values are per cent of control
[26] = biological target: Vascular endothelial growth factor receptor 2 (Homo sapiens) (UniProt P35968); assay: Inhibition of VEGFR2 at 10 uM; conditions: values are per cent of control
[27] = biological target: Serine/threonine-protein kinase TAO1 (Homo sapiens) (UniProt Q7L7X3); assay: Inhibition of TAOK1 at 10 uM
[28] = biological target: Ephrin type-A receptor 5 (Homo sapiens) (UniProt P54756); assay: Inhibition of EPHA5 at 10 uM; values are per cent of control
[29] = biological target: AP2-associated protein kinase 1 (Homo sapiens) (UniProt Q2M2I8); assay: Inhibition of AAK1 at 10 uM; conditions: values are per cent of control
[30] = biological target: Serine/threonine-protein kinase RIO2 (Homo sapiens) (UniProt Q9BVS4); assay: Inhibition of RIOK2 at 10 uM; conditions: values are per cent of control
[31] = biological target: Calcium/calmodulin-dependent protein kinase type II subunit beta (Homo sapiens) (UniProt Q13554); assay: Inhibition of CAMK2B at 10 uM; conditions: values are per cent of control
[32] = biological target: Cyclin-dependent kinase 2 (Homo sapiens) (UniProt P24941); assay: Inhibition of CDK2 at 10 uM; values are per cent of control
[33] = biological target: Fibroblast growth factor receptor 1 (Homo sapiens) (UniProt P11362); assay: Inhibition of FGFR1 at 10 uM; conditions: values are per cent of control
[34] = biological target: Activin receptor type-2B (Homo sapiens) (UniProt Q13705); assay: Inhibition of ACVR2B at 10 uM; values are per cent of control
[35] = biological target: Macrophage-stimulating protein receptor (Homo sapiens) (UniProt Q04912); assay: Inhibition of MST1R at 10 uM
[36] = biological target: Serine/threonine-protein kinase 17A (Homo sapiens) (UniProt Q9UEE5); assay: Inhibition of DRAK1 at 10 uM; values are per cent of control
[37] = biological target: Serine/threonine-protein kinase Nek7 (Homo sapiens) (UniProt Q8TDX7); assay: Inhibition of NEK7 at 10 uM
[38] = tested on: Tyrosine-protein kinase ABL1 (Homo sapiens), P00519 [F317I]; assay: Inhibition of phosphorylated ABL1 F317I mutant at 10 uM; conditions: values are per cent of control
[39] = biological target: Phosphatidylinositol 4,5-bisphosphate 3-kinase catalytic subunit delta isoform (Homo sapiens) (UniProt O00329); assay: Inhibition of PIK3CD at 10 uM
[40] = biological target: Tyrosine-protein kinase Fgr (Homo sapiens) (UniProt P09769); assay: Inhibition of FGR at 10 uM; conditions: values are per cent of control
[41] = tested on: Proto-oncogene tyrosine-protein kinase receptor Ret (Homo sapiens), P07949 [V804M]; assay: Inhibition of RET V804M mutant at 10 uM; values are per cent of control
Chain of Proto-oncogene tyrosine-protein kinase receptor Ret (Homo sapiens), P07949 [V804M] (P07949 whole entry V804M): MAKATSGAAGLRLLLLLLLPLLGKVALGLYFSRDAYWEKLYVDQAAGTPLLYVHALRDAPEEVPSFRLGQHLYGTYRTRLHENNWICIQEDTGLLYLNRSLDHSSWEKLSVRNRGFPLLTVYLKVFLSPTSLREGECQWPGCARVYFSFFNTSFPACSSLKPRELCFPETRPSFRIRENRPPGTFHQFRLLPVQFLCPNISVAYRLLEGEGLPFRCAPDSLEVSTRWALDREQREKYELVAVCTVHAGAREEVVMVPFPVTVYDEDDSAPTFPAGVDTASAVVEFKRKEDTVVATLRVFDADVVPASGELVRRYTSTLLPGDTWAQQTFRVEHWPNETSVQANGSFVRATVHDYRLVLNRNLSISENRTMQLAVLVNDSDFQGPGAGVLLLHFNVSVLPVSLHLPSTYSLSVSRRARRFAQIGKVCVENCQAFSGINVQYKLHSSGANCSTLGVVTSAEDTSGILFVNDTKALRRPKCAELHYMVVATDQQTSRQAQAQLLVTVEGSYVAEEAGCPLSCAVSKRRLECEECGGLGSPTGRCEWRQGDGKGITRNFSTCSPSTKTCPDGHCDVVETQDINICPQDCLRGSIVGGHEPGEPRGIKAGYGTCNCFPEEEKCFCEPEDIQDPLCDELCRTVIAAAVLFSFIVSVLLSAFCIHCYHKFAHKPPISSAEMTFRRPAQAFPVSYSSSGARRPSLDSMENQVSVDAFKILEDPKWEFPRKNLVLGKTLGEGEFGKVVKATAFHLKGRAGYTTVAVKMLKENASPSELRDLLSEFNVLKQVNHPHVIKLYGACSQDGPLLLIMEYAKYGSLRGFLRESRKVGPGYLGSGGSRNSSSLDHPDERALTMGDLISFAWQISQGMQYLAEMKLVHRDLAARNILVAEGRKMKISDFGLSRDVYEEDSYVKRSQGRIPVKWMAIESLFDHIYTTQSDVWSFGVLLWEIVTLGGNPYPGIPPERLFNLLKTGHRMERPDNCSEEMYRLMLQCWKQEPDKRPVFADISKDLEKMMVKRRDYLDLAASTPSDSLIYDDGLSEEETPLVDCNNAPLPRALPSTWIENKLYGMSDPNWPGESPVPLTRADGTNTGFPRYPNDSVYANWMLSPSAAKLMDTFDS

Chain of Serine/threonine-protein kinase ICK (Homo sapiens) (Q9UPZ9 whole entry): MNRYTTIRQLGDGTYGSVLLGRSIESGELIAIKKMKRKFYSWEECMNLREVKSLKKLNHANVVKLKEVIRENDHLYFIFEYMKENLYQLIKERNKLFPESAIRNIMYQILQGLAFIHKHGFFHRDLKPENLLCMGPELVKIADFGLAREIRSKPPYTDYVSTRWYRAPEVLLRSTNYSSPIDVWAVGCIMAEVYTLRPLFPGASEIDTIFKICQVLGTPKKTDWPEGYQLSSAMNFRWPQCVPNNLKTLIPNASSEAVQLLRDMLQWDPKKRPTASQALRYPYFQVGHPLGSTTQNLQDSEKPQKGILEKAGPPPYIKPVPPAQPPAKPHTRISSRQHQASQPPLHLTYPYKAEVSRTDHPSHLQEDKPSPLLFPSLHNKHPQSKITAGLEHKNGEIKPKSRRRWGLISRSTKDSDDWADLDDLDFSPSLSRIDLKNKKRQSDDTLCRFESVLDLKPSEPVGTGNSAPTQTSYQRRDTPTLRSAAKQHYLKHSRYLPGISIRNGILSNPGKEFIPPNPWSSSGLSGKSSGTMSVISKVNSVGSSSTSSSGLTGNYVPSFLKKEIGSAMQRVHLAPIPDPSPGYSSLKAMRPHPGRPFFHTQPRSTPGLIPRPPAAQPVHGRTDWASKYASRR
Chain of Calcium/calmodulin-dependent protein kinase type II subunit beta (Homo sapiens) (Q13554 whole entry): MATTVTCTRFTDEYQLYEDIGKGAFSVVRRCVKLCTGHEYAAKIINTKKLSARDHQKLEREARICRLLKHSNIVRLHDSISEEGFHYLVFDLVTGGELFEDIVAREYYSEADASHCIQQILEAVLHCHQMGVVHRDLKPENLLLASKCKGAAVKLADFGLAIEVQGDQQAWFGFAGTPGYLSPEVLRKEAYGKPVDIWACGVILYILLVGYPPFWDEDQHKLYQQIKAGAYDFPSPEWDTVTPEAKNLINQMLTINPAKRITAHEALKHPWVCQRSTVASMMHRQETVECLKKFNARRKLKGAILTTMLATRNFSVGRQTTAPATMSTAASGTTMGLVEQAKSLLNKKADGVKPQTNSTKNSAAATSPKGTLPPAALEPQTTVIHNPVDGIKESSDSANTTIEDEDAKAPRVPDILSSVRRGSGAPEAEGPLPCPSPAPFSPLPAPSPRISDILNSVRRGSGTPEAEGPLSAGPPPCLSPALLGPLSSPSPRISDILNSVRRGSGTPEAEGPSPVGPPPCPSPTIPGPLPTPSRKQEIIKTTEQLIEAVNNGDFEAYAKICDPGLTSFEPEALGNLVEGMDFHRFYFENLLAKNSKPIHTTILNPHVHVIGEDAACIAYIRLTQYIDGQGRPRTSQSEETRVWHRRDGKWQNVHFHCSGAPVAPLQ
Chain of Serine/threonine-protein kinase B-raf (Homo sapiens) (P15056 whole entry): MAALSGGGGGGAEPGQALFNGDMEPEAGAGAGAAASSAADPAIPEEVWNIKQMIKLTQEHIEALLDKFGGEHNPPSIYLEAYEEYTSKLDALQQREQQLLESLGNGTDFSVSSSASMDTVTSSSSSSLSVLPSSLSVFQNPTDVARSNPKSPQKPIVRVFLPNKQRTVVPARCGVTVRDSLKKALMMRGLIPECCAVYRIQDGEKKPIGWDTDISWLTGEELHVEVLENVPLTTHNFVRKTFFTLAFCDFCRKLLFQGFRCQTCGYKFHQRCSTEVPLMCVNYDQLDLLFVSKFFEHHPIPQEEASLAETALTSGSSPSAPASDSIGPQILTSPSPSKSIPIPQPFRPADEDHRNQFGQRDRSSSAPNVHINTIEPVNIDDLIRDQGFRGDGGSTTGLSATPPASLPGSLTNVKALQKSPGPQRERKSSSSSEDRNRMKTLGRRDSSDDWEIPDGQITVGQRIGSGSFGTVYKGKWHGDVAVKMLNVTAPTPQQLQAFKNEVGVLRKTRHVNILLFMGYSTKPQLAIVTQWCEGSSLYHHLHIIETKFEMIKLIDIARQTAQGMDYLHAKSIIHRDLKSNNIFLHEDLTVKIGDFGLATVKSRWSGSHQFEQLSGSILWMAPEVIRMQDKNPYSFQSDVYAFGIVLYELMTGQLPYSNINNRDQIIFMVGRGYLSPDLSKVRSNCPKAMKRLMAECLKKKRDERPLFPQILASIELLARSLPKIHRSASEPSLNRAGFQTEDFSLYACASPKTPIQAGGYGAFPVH
Chain of Macrophage-stimulating protein receptor (Homo sapiens) (Q04912 25-304 limits assumed): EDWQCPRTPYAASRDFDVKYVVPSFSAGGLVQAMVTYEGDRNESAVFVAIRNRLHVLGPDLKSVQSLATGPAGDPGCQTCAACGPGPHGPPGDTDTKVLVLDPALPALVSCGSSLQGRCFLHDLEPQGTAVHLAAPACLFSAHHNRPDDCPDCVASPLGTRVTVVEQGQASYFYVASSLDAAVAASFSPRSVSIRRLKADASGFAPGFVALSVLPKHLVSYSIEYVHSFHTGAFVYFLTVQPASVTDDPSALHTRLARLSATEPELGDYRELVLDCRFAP
Chain of Macrophage-stimulating protein receptor (Homo sapiens) (Q04912 310-1400 limits assumed): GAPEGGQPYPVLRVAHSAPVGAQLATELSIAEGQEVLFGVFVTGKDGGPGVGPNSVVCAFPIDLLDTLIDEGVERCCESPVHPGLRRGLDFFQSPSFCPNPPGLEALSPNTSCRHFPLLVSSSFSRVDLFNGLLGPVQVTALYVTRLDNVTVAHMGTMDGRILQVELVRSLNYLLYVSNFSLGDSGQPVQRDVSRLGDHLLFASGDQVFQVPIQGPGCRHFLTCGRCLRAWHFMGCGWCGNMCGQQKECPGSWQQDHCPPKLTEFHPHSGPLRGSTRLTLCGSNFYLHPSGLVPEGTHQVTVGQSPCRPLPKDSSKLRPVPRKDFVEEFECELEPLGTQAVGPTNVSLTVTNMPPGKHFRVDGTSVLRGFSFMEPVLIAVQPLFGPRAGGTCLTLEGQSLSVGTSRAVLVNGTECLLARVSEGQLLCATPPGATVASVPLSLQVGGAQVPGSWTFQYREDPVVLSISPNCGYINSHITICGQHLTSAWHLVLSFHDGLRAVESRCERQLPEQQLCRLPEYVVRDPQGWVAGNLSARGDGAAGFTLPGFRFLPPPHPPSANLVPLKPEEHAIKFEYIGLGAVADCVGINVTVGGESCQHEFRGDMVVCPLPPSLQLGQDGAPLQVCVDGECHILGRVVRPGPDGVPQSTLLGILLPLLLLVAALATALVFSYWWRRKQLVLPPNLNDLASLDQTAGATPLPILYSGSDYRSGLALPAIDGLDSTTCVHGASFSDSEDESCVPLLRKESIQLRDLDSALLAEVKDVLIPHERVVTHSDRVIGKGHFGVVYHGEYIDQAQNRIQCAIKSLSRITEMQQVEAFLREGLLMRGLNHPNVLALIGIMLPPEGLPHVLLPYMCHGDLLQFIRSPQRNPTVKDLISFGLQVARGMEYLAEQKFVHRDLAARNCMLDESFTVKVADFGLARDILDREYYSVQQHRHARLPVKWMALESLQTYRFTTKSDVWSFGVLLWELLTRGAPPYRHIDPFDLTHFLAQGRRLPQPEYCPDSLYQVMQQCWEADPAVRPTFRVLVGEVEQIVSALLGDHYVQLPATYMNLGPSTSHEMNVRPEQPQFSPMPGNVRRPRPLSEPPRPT
Chain of Activin receptor type-2B (Homo sapiens) (Q13705 whole entry): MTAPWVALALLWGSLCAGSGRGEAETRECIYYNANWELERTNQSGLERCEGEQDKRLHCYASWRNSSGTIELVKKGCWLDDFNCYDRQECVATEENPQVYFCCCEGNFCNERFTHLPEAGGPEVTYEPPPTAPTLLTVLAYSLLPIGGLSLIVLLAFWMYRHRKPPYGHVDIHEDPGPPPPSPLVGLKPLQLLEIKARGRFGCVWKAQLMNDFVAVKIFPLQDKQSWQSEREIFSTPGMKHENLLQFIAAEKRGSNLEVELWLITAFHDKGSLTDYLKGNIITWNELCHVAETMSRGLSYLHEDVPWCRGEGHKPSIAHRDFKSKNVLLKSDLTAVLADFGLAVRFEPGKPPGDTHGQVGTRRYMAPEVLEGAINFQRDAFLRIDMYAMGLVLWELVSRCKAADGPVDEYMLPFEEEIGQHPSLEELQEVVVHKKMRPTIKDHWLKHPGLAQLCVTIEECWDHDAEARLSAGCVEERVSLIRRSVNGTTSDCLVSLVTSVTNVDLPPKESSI

Structure (SMILES): CCN1CCN(Cc2ccc(NC(=O)c3ccc(C)c(C#Cc4cccnc4)c3)cc2C(F)(F)F)CC1
- residual binding, % of control [1]: 100%
- level, % of control [2]: 0.95%
- residual binding, % of control [3]: 2.6%
- level, % of control [4]: 100%
- residual binding, % of control [5]: 100%
- level, % of control [6]: 24%
- inhibition [7]: 0%
- residual binding, % of control [8]: 0.35%
- inhibition [9]: 100%
- residual binding, % of control [10]: 2%
- inhibition [11]: 7.2%
- inhibition [12]: 67%
- inhibition [13]: 100%
- % of control [14]: 2.7%
- residual binding, % of control [15]: 0.05%
- inhibition [16]: 19%
- residual binding, % of control [17]: 4.2%
- residual binding, % of control [18]: 27%
- inhibition [19]: 100%
- residual binding, % of control [20]: 0.05%
- residual binding, % of control [21]: 0.75%
- inhibition [22]: 85%
- residual binding, % of control [23]: 0.05%
- level, % of control [24]: 0%
- residual binding, % of control [25]: 80%
- residual binding, % of control [26]: 0.25%
- inhibition [27]: 0.25%
- level, % of control [28]: 1.2%
- residual binding, % of control [29]: 99%
- residual binding, % of control [30]: 0.5%
- residual binding, % of control [31]: 100%
- level, % of control [32]: 10%
- residual binding, % of control [33]: 0.25%
- level, % of control [34]: 96%
- inhibition [35]: 68%
- % of control [36]: 87%
- inhibition [37]: 88%
- residual binding, % of control [38]: 4%
- inhibition [39]: 76%
- residual binding, % of control [40]: 0%
- level, % of control [41]: 0%

Structure (SMILES): CCN1CCN(Cc2ccc(NC(=O)c3ccc(C)c(C#Cc4cnc5[nH]ccc5c4)c3)cc2C(F)(F)F)CC1
- residual binding, % of control [1]: 100%
- level, % of control [2]: 1.8%
- residual binding, % of control [3]: 0.9%
- level, % of control [4]: 93%
- residual binding, % of control [5]: 94%
- level, % of control [6]: 13%
- inhibition [7]: 0.6%
- residual binding, % of control [8]: 0.35%
- inhibition [9]: 100%
- residual binding, % of control [10]: 0.65%
- inhibition [11]: 17%
- inhibition [12]: 79%
- inhibition [13]: 100%
- % of control [14]: 5.7%
- residual binding, % of control [15]: 0.1%
- inhibition [16]: 18%
- residual binding, % of control [17]: 6.8%
- residual binding, % of control [18]: 24%
- inhibition [19]: 87%
- residual binding, % of control [20]: 0.15%
- residual binding, % of control [21]: 0.1%
- inhibition [22]: 28%
- residual binding, % of control [23]: 0.45%
- level, % of control [24]: 0%
- residual binding, % of control [25]: 96%
- residual binding, % of control [26]: 0.35%
- inhibition [27]: 0%
- level, % of control [28]: 0.85%
- residual binding, % of control [29]: 59%
- residual binding, % of control [30]: 2%
- residual binding, % of control [31]: 100%
- level, % of control [32]: 13%
- residual binding, % of control [33]: 0.15%
- level, % of control [34]: 23%
- inhibition [35]: 76%
- % of control [36]: 24%
- inhibition [37]: 50%
- residual binding, % of control [38]: 4.9%
- inhibition [39]: 76%
- residual binding, % of control [40]: 0.15%
- level, % of control [41]: 0%
